Data as given in ChEMBL document CHEMBL1201861, “Genomics of Drug Sensitity in Cancer screening data, Wellcome Trust Sanger Institute”.
Several values for one entry are separate records, joined by “and”; a condition that tells them apart may be missing. Identical values can stand only once.

Key:
Assay in all cases: cells
H4 = type: functional, cell-based; conditions: Homo sapiens
Description: SANGER: Inhibition of human H4 cell growth in a cell viability assay.

SW48 = type: functional, cell-based, Homo sapiens;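 also: growth inhibition of SW48 cells, read out with a cell viability assay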
Description: SANGER: Inhibition of human SW48 cell growth in a cell viability assay.

OVCAR-8 = type: functional, cell-based, Homo sapiens;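 also: growth inhibition of human OVCAR-8 cells, read out by a cell viability assay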
Description: SANGER: Inhibition of human OVCAR-8 cell growth in a cell viability assay.

SK-MEL-2 = type: functional, cell-based, Homo sapiens
Description: SANGER: Inhibition of human SK-MEL-2 cell growth in a cell viability assay.

NCI-H2170 = type: functional, cell-based, Homo sapiens;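 also: cell viability assay measuring growth inhibition of human NCI-H2170 cancer cells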
Description: SANGER: Inhibition of human NCI-H2170 cell growth in a cell viability assay.

NOS-1 = type: functional, cell-based, Homo sapiens;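 also: growth inhibition of the human NOS-1 cell line, read out with a cell viability assay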
Description: SANGER: Inhibition of human NOS-1 cell growth in a cell viability assay.

NCI-H2228 = type: functional, cell-based, Homo sapiens;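 also: growth inhibition of human NCI-H2228 cells, read out by a cell viability assay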
Description: SANGER: Inhibition of human NCI-H2228 cell growth in a cell viability assay.

DOK = type: functional, cell-based, Homo sapiens;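 also: cell viability assay read-out, values reflect inhibition of cell growth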
Description: SANGER: Inhibition of human DOK cell growth in a cell viability assay.

MSTO-211H = type: functional, cell-based, Homo sapiens
Description: SANGER: Inhibition of human MSTO-211H cell growth in a cell viability assay.

NCI-H2030 = type: functional, cell-based, Homo sapiens;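 also: growth inhibition of human NCI-H2030 cells, read out by a cell viability assay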
Description: SANGER: Inhibition of human NCI-H2030 cell growth in a cell viability assay.

OVCAR-4 = type: functional, cell-based, Homo sapiens;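 also: growth inhibition of human OVCAR-4 cells, measured with a cell viability assay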
Description: SANGER: Inhibition of human OVCAR-4 cell growth in a cell viability assay.

SKG-IIIa = type: functional, cell-based, Homo sapiens;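 also: cell growth inhibition, read out with a cell viability assay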
Description: SANGER: Inhibition of human SKG-IIIa cell growth in a cell viability assay.

JAR = type: functional, cell-based, Homo sapiens;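 also: growth inhibition of human JAR cells determined with a cell viability assay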
Description: SANGER: Inhibition of human JAR cell growth in a cell viability assay.

RCC10RGB = type: functional, cell-based, Homo sapiens;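 also: growth inhibition of human RCC10RGB cells, read out by a cell viability assay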
Description: SANGER: Inhibition of human RCC10RGB cell growth in a cell viability assay.

Panc1005 = type: functional, cell-based, Homo sapiens;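 also: growth inhibition of human PANC-10-05 cells, measured by a cell viability assay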
Description: SANGER: Inhibition of human PANC-10-05 cell growth in a cell viability assay.

MDA-MB-231 = type: functional, cell-based, Homo sapiens
Description: SANGER: Inhibition of human MDA-MB-231 cell growth in a cell viability assay.

CAL-72 = type: functional, cell-based, Homo sapiens;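 also: cell viability assay measuring inhibition of proliferation in the CAL-72 cell line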
Description: SANGER: Inhibition of human CAL-72 cell growth in a cell viability assay.

BFTC-905 = type: functional, cell-based, Homo sapiens
Description: SANGER: Inhibition of human BFTC-905 cell growth in a cell viability assay.

A2780 = type: functional, cell-based, Homo sapiens;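 also: growth inhibition of A2780 cells, read out with a cell viability assay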
Description: SANGER: Inhibition of human A2780 cell growth in a cell viability assay.

CTB-1 = type: functional, cell-based; conditions: Homo sapiens
Description: SANGER: Inhibition of human CTB-1 cell growth in a cell viability assay.

KM-H2 = type: functional, cell-based; conditions: Homo sapiens;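 also: growth inhibition of KM-H2 cells, read out by a cell viability assay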
Description: SANGER: Inhibition of human KM-H2 cell growth in a cell viability assay.

Hs-578T = type: functional, cell-based, Homo sapiens
Description: SANGER: Inhibition of human Hs-578-T cell growth in a cell viability assay.

HCC1419 = type: functional, cell-based, Homo sapiens;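 also: growth inhibition of human HCC1419 cells, read out as cell viability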
Description: SANGER: Inhibition of human HCC1419 cell growth in a cell viability assay.

SF-268 = type: functional, cell-based, Homo sapiens;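 also: growth inhibition of SF-268 cells determined with a cell viability assay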
Description: SANGER: Inhibition of human SF268 cell growth in a cell viability assay.

CAPAN-1 = type: functional, cell-based, Homo sapiens;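 also: growth suppression of CAPAN-1 cells, read out by a cell viability assay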
Description: SANGER: Inhibition of human CAPAN-1 cell growth in a cell viability assay.

COLO-680N = type: functional, cell-based, Homo sapiens;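 also: cell viability assay used to measure inhibition of COLO-680N cell growth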
Description: SANGER: Inhibition of human COLO-680N cell growth in a cell viability assay.

DSH1 = type: functional, cell-based, Homo sapiens;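 also: growth inhibition of human DSH1 cells, measured with a cell viability readout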
Description: SANGER: Inhibition of human DSH1 cell growth in a cell viability assay.

BXPC-3 = type: functional, cell-based, Homo sapiens;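 also: growth inhibition of human BxPC-3 cells, read out by a cell viability assay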
Description: SANGER: Inhibition of human BxPC-3 cell growth in a cell viability assay.

KYSE-140 = type: functional, cell-based, Homo sapiens;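 also: cell viability assay measuring growth inhibition in human KYSE-140 cells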
Description: SANGER: Inhibition of human KYSE-140 cell growth in a cell viability assay.

HEC-1 = type: functional, cell-based, Homo sapiens;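 also: growth inhibition of the cell line, read out with a cell viability assay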
Description: SANGER: Inhibition of human HEC-1 cell growth in a cell viability assay.

LS-123 = type: functional, cell-based, Homo sapiens
Description: SANGER: Inhibition of human LS-123 cell growth in a cell viability assay.

AM-38 = type: functional, cell-based, Homo sapiens;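 also: growth inhibition of AM-38 cells of human origin, read out by a cell viability assay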
Description: SANGER: Inhibition of human AM-38 cell growth in a cell viability assay.

HuO-3N1 = type: functional, cell-based, Homo sapiens;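 also: cell viability readout used to measure how strongly compounds suppress proliferation of human HuO-3N1 cells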
Description: SANGER: Inhibition of human HuO-3N1 cell growth in a cell viability assay.

NCI-H1793 = type: functional, cell-based, Homo sapiens;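 also: cell growth inhibition, read out by a cell viability assay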
Description: SANGER: Inhibition of human NCI-H1793 cell growth in a cell viability assay.

ES4 = type: functional, cell-based, Homo sapiens;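 also: growth inhibition of human ES4 cells, read out by a cell viability assay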
Description: SANGER: Inhibition of human ES4 cell growth in a cell viability assay.

RT-112 = type: functional, cell-based, Homo sapiens
Description: SANGER: Inhibition of human RT-112 cell growth in a cell viability assay.

PANC-08-13 = type: functional, cell-based, Homo sapiens;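 also: cell growth inhibition, measured with a cell viability assay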
Description: SANGER: Inhibition of human PANC-08-13 cell growth in a cell viability assay.

LCLC-103H cell line = type: functional, cell-based, Homo sapiens
Description: SANGER: Inhibition of human LCLC-103H cell growth in a cell viability assay.

KYSE-450 = type: functional, cell-based; conditions: Homo sapiens;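 also: cell growth inhibition measured by a viability assay in human KYSE-450 cells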
Description: SANGER: Inhibition of human KYSE-450 cell growth in a cell viability assay.

KYSE-150 cell line = type: functional, cell-based, Homo sapiens;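 also: growth inhibition of human KYSE-150 cells, read out with a cell viability assay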
Description: SANGER: Inhibition of human KYSE-150 cell growth in a cell viability assay.

COLO-792 = type: functional, cell-based, Homo sapiens
Description: SANGER: Inhibition of human COLO-792 cell growth in a cell viability assay.

HT1197 = type: functional, cell-based, Homo sapiens, HT-1197
Description: SANGER: Inhibition of human HT-1197 cell growth in a cell viability assay.

SK-MEL-28 = type: functional, cell-based; conditions: Homo sapiens;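 also: growth inhibition of human SK-MEL-28 cells, read out with a cell viability assay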
Description: SANGER: Inhibition of human SK-MEL-28 cell growth in a cell viability assay.

DMS-114 = type: functional, cell-based, Homo sapiens
ES3 = type: functional, cell-based, Homo sapiens;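 also: growth inhibition of ES3 cells, read out with a cell viability assay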
Description: SANGER: Inhibition of human ES3 cell growth in a cell viability assay.

NOMO-1 = type: functional, cell-based; conditions: Homo sapiens;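 also: growth inhibition of human NOMO-1 cells measured by a cell viability assay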
Description: SANGER: Inhibition of human NOMO-1 cell growth in a cell viability assay.

AU565 = type: functional, cell-based, Homo sapiens;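 also: cell viability assay measuring growth inhibition of human AU565 cells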
Description: SANGER: Inhibition of human AU565 cell growth in a cell viability assay.

HOP-62 = type: functional, cell-based, Homo sapiens; conditions: hop-62;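 also: cell growth inhibition determined with a viability assay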
Description: SANGER: Inhibition of human HOP-62 cell growth in a cell viability assay.

HCC2157 = type: functional, cell-based; conditions: Homo sapiens;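 also: growth inhibition of the cancer cell line, read out as cell viability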
Description: SANGER: Inhibition of human HCC2157 cell growth in a cell viability assay.

MFH-ino = type: functional, cell-based; conditions: Homo sapiens;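 also: growth inhibition of human MFH-ino cells, read out by a cell viability assay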
Description: SANGER: Inhibition of human MFH-ino cell growth in a cell viability assay.

In the case of O=C(c1cc(Cc2n[nH]c(=O)c3ccccc23)ccc1F)N1CCN(C(=O)C2CC2)CC1 [OLAPARIB], the IC50 (H4) is reported as 4.89 µM, the IC50 (SW48; Homo sapiens, SW48) is reported as over 5 µM and the IC50 (OVCAR-8; Homo sapiens, OVCAR-8) is reported as over 5 µM. It also gave an IC50 (SK-MEL-2; Homo sapiens, SK-MEL-2) of over 5 µM, an IC50 (NCI-H2170; Homo sapiens, NCI-H2170) of over 5 µM and an IC50 (NOS-1; Homo sapiens, NOS-1) of over 5 µM. It also gave an IC50 (NCI-H2228; Homo sapiens, NCI-H2228) of over 5 µM, an IC50 (DOK; Homo sapiens, DOK) of over 5 µM and an IC50 (MSTO-211H; Homo sapiens, MSTO-211H) of over 5 µM. For the same compound, the IC50 (NCI-H2030; Homo sapiens, NCI-H2030) was over 5 µM, the IC50 (OVCAR-4; Homo sapiens, OVCAR-4) was over 5 µM and the IC50 (SKG-IIIa; Homo sapiens, SKG-IIIa) was over 5 µM. It also gave an IC50 (JAR; Homo sapiens, JAR) of over 5 µM, an IC50 (RCC10RGB; Homo sapiens, RCC10RGB) of over 5 µM and an IC50 (Panc1005; Homo sapiens, Panc1005) of over 5 µM. For the same compound, the IC50 (MDA-MB-231; Homo sapiens, MDA-MB-231) was over 5 µM, the IC50 (CAL-72; Homo sapiens, CAL-72) was over 5 µM and the IC50 (BFTC-905; Homo sapiens, BFTC-905) was over 5 µM. For the same compound, the IC50 (A2780; Homo sapiens, A2780) was over 5 µM, the IC50 (CTB-1) was over 5 µM and the IC50 (KM-H2) was over 5 µM. The IC50 (Hs-578T; Homo sapiens, Hs-578T) was over 5 µM, the IC50 (HCC1419; Homo sapiens, HCC1419) was over 5 µM and the IC50 (SF-268; Homo sapiens, SF-268) was over 5 µM. It also gave an IC50 (CAPAN-1; Homo sapiens, CAPAN-1) of over 5 µM, an IC50 (COLO-680N; Homo sapiens, COLO-680N) of over 5 µM and an IC50 (DSH1; Homo sapiens, DSH1) of over 5 µM. The IC50 (BXPC-3; Homo sapiens, BXPC-3) was over 5 µM, the IC50 (KYSE-140; Homo sapiens, KYSE-140) was over 5 µM and the IC50 (HEC-1; Homo sapiens, HEC-1) was over 5 µM. The IC50 (LS-123; Homo sapiens, LS-123) was over 5 µM, the IC50 (AM-38; Homo sapiens, AM-38) was over 5 µM and the IC50 (HuO-3N1; Homo sapiens, HuO-3N1) was over 5 µM. The IC50 (NCI-H1793; Homo sapiens, NCI-H1793) was over 5 µM, the IC50 (ES4; Homo sapiens, ES4) was over 5 µM and the IC50 (RT-112; Homo sapiens, RT-112) was over 5 µM. The IC50 (PANC-08-13; Homo sapiens, PANC-08-13) was over 5 µM, the IC50 (LCLC-103H cell line; Homo sapiens, LCLC-103H) was over 5 µM and the IC50 (KYSE-450) was over 5 µM. The IC50 (KYSE-150 cell line; Homo sapiens, KYSE-150) was over 5 µM, the IC50 (COLO-792; Homo sapiens, COLO-792) was over 5 µM and the IC50 (HT1197; Homo sapiens, HT1197) was over 5 µM. For the same compound, the IC50 (SK-MEL-28) was over 5 µM, the IC50 (DMS-114; Homo sapiens, DMS-114) was over 5 µM and the IC50 (ES3; Homo sapiens, ES3) was over 5 µM. The IC50 (NOMO-1) was over 5 µM and the IC50 (AU565; Homo sapiens, AU565) was over 5 µM.

Cc1cc([C@@H](C)Nc2ccccc2C(=O)O)c2nc(N3CCOCC3)cc(=O)n2c1 [AZD-6482] was tested, and the IC50 (SW48; Homo sapiens, SW48) was over 5.12 µM, the IC50 (SW48; sw48) was over 5.12 µM and the IC50 (OVCAR-8; ovcar-8) was over 5.12 µM. It also gave an IC50 (SK-MEL-2; Homo sapiens, SK-MEL-2) of over 5.12 µM, an IC50 (SK-MEL-2; sk-mel-2) of over 5.12 µM and an IC50 (NCI-H2170; nci-h2170) of over 5.12 µM. For the same compound, the IC50 (HOP-62) was over 5.12 µM, the IC50 (NOS-1; Homo sapiens, NOS-1) was over 5.12 µM and the IC50 (NOS-1; nos-1) was over 5.12 µM. The IC50 (NCI-H2228; nci-h2228) was over 5.12 µM, the IC50 (DOK; dok) was 3.85 µM and 1.53 µM and the IC50 (MSTO-211H; msto-211h) was over 5.12 µM. For the same compound, the IC50 (NCI-H2030; Homo sapiens, NCI-H2030) was 2.9 µM, the IC50 (NCI-H2030; nci-h2030) was 2.69 µM and the IC50 (OVCAR-4; ovcar-4) was over 5.12 µM. For the same compound, the IC50 (HCC2157) was 3.96 µM, the IC50 (SKG-IIIa; skg-iiia) was over 5.12 µM and the IC50 (MFH-ino) was over 5.12 µM. For the same compound, the IC50 (JAR; jar) was over 5.12 µM, the IC50 (RCC10RGB; rcc10rgb) was over 5.12 µM and the IC50 (Panc1005; panc1005) was 2.1 µM and > 5.12 µM. The IC50 (MDA-MB-231; Homo sapiens, MDA-MB-231) was over 5.12 µM, the IC50 (MDA-MB-231; mda-mb-231) was over 5.12 µM and the IC50 (CAL-72; Homo sapiens, CAL-72) was over 5.12 µM. The IC50 (CAL-72; cal-72) was over 5.12 µM, the IC50 (BFTC-905; bftc-905) was > 5.12 µM and 4.15 µM and the IC50 (A2780; a2780) was > 5.12 µM and 2.56 µM. For the same compound, the IC50 (CTB-1) was over 5.12 µM, the IC50 (KM-H2) was over 5.12 µM and the IC50 (Hs-578T; hs-578-t) was > 5.12 µM and 3.5 µM. It also gave an IC50 (HCC1419; hcc1419) of over 5.12 µM, an IC50 (SF-268; sf-268) of over 5.12 µM and an IC50 (CAPAN-1; capan-1) of over 5.12 µM. For the same compound, the IC50 (COLO-680N; colo-680n) was over 5.12 µM, the IC50 (DSH1; Homo sapiens, DSH1) was over 5.12 µM and the IC50 (DSH1; dsh1) was over 5.12 µM. For the same compound, the IC50 (BXPC-3; bxpc-3) was > 5.12 µM and 3.45 µM, the IC50 (KYSE-140; kyse-140) was over 5.12 µM and the IC50 (HEC-1; Homo sapiens, HEC-1) was over 5.12 µM. The IC50 (HEC-1; hec-1) was over 5.12 µM, the IC50 (LS-123; ls-123) was over 5.12 µM and the IC50 (AM-38; am-38) was over 5.12 µM. For the same compound, the IC50 (HuO-3N1; Homo sapiens, HuO-3N1) was over 5.12 µM, the IC50 (HuO-3N1; huo-3n1) was over 5.12 µM and the IC50 (NCI-H1793; nci-h1793) was over 5.12 µM. It also gave an IC50 (ES4; es4) of over 5.12 µM, an IC50 (RT-112; Homo sapiens, RT-112) of over 5.12 µM and an IC50 (RT-112; rt-112) of over 5.12 µM. For the same compound, the IC50 (PANC-08-13; panc-08-13) was over 5.12 µM, the IC50 (LCLC-103H cell line; Homo sapiens, LCLC-103H) was over 5.12 µM and the IC50 (LCLC-103H cell line; lclc-103h) was over 5.12 µM. It also gave an IC50 (KYSE-450) of over 5.12 µM, an IC50 (KYSE-150 cell line; kyse-150) of over 5.12 µM and an IC50 (COLO-792; colo-792) of over 5.12 µM. It also gave an IC50 (HT1197; ht-1197) of over 5.12 µM, an IC50 (SK-MEL-28) of over 5.12 µM and an IC50 (DMS-114; dms-114) of over 5.12 µM. For the same compound, the IC50 (ES3; Homo sapiens, ES3) was over 5.12 µM, the IC50 (ES3; es3) was over 5.12 µM and the IC50 (NOMO-1) was 3.32 µM. The IC50 (AU565; Homo sapiens, AU565) was over 5.12 µM and the IC50 (AU565; au565) was over 5.12 µM.
